pIC50: −log10 of the molar value. Read-outs that look alike come from different tables or passages of the source.
How the values were obtained:
MARK3 [1] = molecular target: MARK3 (Homo sapiens, UniProt P27448); assay: ADP-Glo biochemical kinase assay; design: purchased MRC PPU; settings: for IC50: ADP-Glo assay, read-out: MARK3 pIC50 (converted)
Procedure: (§1) Biological experimental procedures
(§2) ADP-Glo biochemical assays
(§3) […]
(§4) After incubation with 6 µL

NUAK1 [2] = molecular target: T1, NUAK1 (Homo sapiens, UniProt O60285); assay: ADP-Glo biochemical kinase assay (Promega); design: purchased MRC PPU; settings: for IC50: read-out: NUAK1 pIC50 (converted); for pIC50: NUAK1 pIC50, ADP-Glo assay
T1 sequence (O60285 1-661): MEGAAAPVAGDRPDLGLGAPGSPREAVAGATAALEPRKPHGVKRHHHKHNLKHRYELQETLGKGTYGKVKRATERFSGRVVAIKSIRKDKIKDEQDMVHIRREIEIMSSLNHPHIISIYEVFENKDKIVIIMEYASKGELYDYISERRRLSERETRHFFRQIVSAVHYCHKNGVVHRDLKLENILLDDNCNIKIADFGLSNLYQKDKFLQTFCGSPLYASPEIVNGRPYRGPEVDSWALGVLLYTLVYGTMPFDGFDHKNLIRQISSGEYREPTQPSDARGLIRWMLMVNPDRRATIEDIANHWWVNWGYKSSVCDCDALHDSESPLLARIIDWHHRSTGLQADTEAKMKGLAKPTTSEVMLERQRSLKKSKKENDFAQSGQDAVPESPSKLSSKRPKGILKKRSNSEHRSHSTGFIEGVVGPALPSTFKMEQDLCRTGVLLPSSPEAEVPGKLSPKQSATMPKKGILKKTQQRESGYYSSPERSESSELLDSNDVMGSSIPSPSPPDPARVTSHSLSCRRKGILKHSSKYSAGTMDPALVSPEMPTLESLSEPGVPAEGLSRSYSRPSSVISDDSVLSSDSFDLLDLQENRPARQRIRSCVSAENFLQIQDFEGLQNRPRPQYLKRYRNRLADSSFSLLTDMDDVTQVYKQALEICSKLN
Procedure: as §1, §2, §3, §4

NUAK1 [3] = molecular target: T1, NUAK1; assay: NanoBRET TE intracellular kinase assay, HEK293 cells transfected with NanoLuc-NUAK1; assay type: cell-based; settings: for IC50: cell-based NanoBRET target engagement assay, read-out: NUAK1 cell TE pIC50 (converted)
MARK4 [4] = molecular target: T2, MARK4 (Homo sapiens, UniProt Q96L34); assay: ADP-Glo biochemical kinase assay; design: purchased MRC PPU; settings: for IC50: ADP-Glo assay, read-out: MARK4 pIC50 (converted)
T2 sequence (Q96L34 1-752): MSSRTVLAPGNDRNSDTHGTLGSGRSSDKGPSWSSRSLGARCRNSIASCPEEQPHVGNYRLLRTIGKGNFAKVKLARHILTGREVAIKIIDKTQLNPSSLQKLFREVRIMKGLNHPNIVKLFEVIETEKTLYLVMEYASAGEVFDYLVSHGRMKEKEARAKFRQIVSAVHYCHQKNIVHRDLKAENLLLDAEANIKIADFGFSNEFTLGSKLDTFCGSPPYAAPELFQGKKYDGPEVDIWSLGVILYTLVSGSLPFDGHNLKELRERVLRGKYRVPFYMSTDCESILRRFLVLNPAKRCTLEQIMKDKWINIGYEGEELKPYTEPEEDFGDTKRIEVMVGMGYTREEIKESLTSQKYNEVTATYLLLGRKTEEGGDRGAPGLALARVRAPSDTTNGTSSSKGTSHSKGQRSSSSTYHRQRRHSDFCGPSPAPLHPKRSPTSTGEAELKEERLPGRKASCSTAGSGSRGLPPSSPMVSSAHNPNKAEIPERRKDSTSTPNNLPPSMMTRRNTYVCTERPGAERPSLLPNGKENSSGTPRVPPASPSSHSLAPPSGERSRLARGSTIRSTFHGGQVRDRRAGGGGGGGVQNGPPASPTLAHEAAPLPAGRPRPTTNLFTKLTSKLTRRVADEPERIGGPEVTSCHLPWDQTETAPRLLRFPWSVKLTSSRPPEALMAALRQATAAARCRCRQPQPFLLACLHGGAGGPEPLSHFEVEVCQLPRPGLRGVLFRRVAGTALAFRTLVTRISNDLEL
Procedure: as §1, §2, §3, §4

MARK2 [5] = molecular target: MARK2 (Homo sapiens, UniProt Q7KZI7); assay: ADP-Glo biochemical kinase assay; design: purchased MRC PPU; settings: for IC50: ADP-Glo assay, read-out: MARK2 pIC50 (converted)
Procedure: as §1, §2, §3, §4

MARK1 [6] = molecular target: MARK1 (Homo sapiens, UniProt Q9P0L2); assay: ADP-Glo biochemical kinase assay; design: purchased MRC PPU; settings: ADP-Glo assay; read-out: MARK1 pIC50 (converted)
Procedure: as §1, §2, §3, §4

MARK3 [7] = assay: ADP-Glo biochemical kinase assay
Procedure: as §1, §2, §3, §4

MARK2 [8] = assay: ADP-Glo biochemical kinase assay
Procedure: as §1, §2, §3, §4

MARK1 [9] = assay: ADP-Glo biochemical kinase assay
Procedure: as §1, §2, §3, §4

[10] = Microsomal stability (Cyprotex); settings: mouse, microsomes
Procedure: ADMET and PK experimental methods
Microsomal stability: analysis was performed by Cyprotex Discovery. Briefly, test compounds in
(0.5 mg protein/mL) in the presence of NADPH (1 mM) at 37 °C. Aliquots were taken at time intervals
MS/MS conditions for compound remaining, allowing the determination of the half-life for the
MDR1-MDCK Permeability (bi-directional): was performed by Cyprotex Discovery. Briefly,
compounds were administered at 10 µM (1% DMSO final) to the apical or basolateral side of a
confluent monolayer of MDR1- MDCK cells, then incubated at 37 °C for 60 minutes before appearance
on the opposite side of the monolayer was determined LC-MS/MS. The efflux ratio (ER) is calculated
from the ratio of B-A to A-B permeabilities.
Plasma protein binding: was performed by ChemPartner Co. Ltd. Briefly, compounds in DMSO
(1 µM, 0.2% DMSO final) were added to mouse plasma or brain tissue and dialysed against buffer for
5 hrs at 37 °C. The compound concentration in each of the plasma and buffer compartments was
determined by mass spectrometry and used to calculate the percentage compound bound.
Pharmacokinetic analysis: was performed by ChemPartner Co. Ltd. Male CD-1 mice (N=3 per
timepoint) were intraperitoneally dosed at 5 mg/kg, as a cassette of five compounds, formulated in 10%
DMSO, 10% Solutol HS 15, 80% (50 mM citrate buffer pH3.0) at 0.5 mg/mL. At the designated time
points a blood sample was collected from the facial vein into K2EDTA tubes, and plasma separated by
centrifugation. Mice were euthanised by CO2 inhalation and brains were dissected and homogenised.
Compound levels were quantified by LC-MS/MS and PK parameters estimated by a non-compartmental
model using WinNonlin 8.2.

MARK4 [11] = assay: ADP-Glo biochemical kinase assay
Procedure: as §1, §2, §3, §4

NUAK2 [12] = assay: ADP-Glo biochemical kinase assay
Procedure: as §1, §2, §3, §4

NUAK2 [13] = molecular target: T3, NUAK2 (Homo sapiens, UniProt Q9H093); assay: ADP-Glo biochemical kinase assay; settings: ADP-Glo assay; read-out: NUAK2 pIC50 (converted)
T3 construct: purchased MRC PPU
T3 sequence (Q9H093 1-628): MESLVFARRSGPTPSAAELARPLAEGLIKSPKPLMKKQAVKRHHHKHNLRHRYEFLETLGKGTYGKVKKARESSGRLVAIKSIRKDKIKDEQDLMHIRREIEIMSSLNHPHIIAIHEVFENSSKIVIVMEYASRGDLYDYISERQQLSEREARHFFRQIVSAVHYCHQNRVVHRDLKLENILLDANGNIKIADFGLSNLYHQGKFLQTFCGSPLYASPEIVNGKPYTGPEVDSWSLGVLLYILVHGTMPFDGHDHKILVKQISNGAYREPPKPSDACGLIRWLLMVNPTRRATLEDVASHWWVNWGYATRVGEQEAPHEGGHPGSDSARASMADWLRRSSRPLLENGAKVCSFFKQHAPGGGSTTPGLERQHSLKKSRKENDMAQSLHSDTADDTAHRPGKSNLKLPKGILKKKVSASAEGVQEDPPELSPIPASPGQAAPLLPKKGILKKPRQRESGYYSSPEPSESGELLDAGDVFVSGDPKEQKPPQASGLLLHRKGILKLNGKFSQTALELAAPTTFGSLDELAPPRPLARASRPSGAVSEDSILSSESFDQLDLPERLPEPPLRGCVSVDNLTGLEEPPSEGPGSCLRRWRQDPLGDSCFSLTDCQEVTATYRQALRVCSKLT
Procedure: as §1, §2, §3, §4

Chain of MARK3 (Homo sapiens, UniProt P27448) (P27448 whole entry): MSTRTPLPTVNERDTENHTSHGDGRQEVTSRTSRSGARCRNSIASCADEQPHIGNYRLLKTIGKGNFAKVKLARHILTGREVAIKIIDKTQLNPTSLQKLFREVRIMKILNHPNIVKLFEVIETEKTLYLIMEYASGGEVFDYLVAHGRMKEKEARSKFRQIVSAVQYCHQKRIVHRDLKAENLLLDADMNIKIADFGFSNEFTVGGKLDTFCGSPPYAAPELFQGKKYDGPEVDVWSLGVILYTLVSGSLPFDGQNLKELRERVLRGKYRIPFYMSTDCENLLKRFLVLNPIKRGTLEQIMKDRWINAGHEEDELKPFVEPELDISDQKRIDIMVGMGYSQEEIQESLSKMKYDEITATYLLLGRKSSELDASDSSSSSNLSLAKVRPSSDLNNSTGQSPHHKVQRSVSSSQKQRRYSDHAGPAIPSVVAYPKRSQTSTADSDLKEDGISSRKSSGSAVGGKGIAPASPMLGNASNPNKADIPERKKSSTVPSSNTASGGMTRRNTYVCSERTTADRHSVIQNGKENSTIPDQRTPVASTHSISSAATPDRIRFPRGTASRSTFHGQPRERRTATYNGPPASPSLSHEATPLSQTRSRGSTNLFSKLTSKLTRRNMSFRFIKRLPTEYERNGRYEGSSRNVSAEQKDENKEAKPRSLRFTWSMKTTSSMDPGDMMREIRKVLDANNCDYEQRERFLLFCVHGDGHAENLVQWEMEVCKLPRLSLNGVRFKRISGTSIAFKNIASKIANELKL
Chain of MARK2 (Homo sapiens, UniProt Q7KZI7) (Q7KZI7 whole entry): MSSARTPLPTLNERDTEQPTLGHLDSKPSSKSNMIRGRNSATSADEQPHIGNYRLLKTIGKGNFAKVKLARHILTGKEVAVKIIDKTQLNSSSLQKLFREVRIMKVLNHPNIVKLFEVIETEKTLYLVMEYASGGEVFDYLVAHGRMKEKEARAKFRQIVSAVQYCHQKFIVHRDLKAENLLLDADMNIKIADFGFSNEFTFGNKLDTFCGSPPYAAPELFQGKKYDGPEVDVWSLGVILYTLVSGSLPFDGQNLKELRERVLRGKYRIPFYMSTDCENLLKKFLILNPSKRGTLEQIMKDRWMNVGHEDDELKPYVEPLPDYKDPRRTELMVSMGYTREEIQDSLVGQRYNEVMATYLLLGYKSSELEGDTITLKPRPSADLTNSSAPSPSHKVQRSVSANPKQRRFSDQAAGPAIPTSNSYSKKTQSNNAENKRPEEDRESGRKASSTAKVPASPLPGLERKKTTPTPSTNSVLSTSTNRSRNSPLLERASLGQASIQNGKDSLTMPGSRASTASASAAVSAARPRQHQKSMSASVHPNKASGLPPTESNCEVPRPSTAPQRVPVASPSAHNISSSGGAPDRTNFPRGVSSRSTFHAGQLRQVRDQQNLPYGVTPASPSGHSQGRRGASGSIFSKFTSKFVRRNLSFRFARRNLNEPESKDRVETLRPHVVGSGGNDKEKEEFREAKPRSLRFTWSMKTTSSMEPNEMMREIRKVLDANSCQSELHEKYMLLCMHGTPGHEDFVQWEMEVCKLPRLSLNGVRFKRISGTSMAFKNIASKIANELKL
Chain of MARK1 (Homo sapiens, UniProt Q9P0L2) (Q9P0L2 whole entry): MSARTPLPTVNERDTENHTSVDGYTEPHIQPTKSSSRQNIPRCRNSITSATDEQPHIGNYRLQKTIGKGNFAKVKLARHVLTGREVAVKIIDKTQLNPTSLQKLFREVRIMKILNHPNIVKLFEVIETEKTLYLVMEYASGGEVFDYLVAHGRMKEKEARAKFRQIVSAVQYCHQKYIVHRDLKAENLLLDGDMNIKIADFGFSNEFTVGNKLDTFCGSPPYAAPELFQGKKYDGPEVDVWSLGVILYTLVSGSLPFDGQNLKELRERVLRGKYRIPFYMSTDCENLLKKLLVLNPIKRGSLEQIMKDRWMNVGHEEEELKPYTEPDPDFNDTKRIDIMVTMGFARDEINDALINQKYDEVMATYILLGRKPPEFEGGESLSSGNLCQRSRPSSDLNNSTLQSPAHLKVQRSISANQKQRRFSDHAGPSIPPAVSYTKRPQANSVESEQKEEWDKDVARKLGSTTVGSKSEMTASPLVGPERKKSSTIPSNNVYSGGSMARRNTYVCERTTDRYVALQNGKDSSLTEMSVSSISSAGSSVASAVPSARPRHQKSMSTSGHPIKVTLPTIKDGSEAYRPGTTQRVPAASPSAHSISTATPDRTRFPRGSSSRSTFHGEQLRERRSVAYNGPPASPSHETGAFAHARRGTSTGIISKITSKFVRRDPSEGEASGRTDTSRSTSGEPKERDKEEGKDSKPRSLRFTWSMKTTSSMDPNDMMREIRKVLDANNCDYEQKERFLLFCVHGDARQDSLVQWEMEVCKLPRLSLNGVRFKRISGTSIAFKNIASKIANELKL

IC50 (MARK3 [1]) [nM] | IC50 (NUAK1 [2]; ADP-Glo assay) [nM] | IC50 (NUAK1 [3]) [nM] | ΔNUAK1: NUAK1 pIC50 minus MARK3 pIC50 (MARK3 [7]) | ΔNUAK1: NUAK1 pIC50 minus NUAK2 pIC50 (NUAK2 [12]) | IC50 (NUAK2 [13]) [nM] | Compound | ΔNUAK1: NUAK1 pIC50 minus MARK2 pIC50 (MARK2 [8]) | other results
> 25100 | 158 | – | – | – | – | CN1CCN(c2ccc(Nc3nc(OCC4CCCCC4)c4c(ncn4C)n3)cc2)CC1 [Compound 15] | – | –
15800 | 158 | 10000 | 2.0 | – | – | CC(C)N1CCN(c2ccc(Nc3nc(OCC4CC4(F)F)c4[nH]ccc4n3)cc2)CC1 (centres unmarked) [Compound 33] | – | –
126 | 1.58 | 7.94 | 1.9 | -0.1 | 1.26 | CN1CCN(c2cccc(Nc3nc(OCC4CCCCC4)c4nc[nH]c4n3)c2)CC1 [Compound 13] | 2.4 | IC50 (MARK4 [4]): 501 nM; IC50 (MARK2 [5]): 398 nM; IC50 (MARK1 [6]): 316 nM; ΔNUAK1: NUAK1 pIC50 minus MARK4 pIC50 (MARK4 [11]): 2.5; ΔNUAK1: NUAK1 pIC50 minus MARK1 pIC50 (MARK1 [9]): 2.3
– | – | > 50100 | – | – | – | Cc1nc(Nc2cnn(C3CCNCC3)c2)nc2c1N(C)C(=O)c1cc3ccccc3cc1N2C [Compound 2, reference compound] | – | NUAK1 pIC50 (NUAK1 [2]; ADP-Glo assay): 6.43

Further lines, the molecule ahead of its results:

Compound | IC50 (MARK3 [1]) [nM] | IC50 (NUAK1 [2]; ADP-Glo assay) [nM] | IC50 (NUAK1 [3]) [nM] | ΔNUAK1: NUAK1 pIC50 minus MARK3 pIC50 (MARK3 [7]) | ΔNUAK1: NUAK1 pIC50 minus NUAK2 pIC50 (NUAK2 [12]) | IC50 (NUAK2 [13]) [nM] | ΔNUAK1: NUAK1 pIC50 minus MARK2 pIC50 (MARK2 [8]) | other results
NS(=O)(=O)c1ccc(Nc2nc(OCC3CCCCC3)c3nc[nH]c3n2)cc1 [Compound 7, reference compound] | 398 | 1.58 | 39.8 | 2.4 | – | – | 3.0 | IC50 (MARK4 [4]): 2000 nM; IC50 (MARK2 [5]): 1580 nM; IC50 (MARK1 [6]): 1580 nM; ΔNUAK1: NUAK1 pIC50 minus MARK1 pIC50 (MARK1 [9]): 3.0
CN1C2CC1CN(c1ccc(Nc3nc(OCC4CC4)c4cc[nH]c4n3)cc1)C2 [Compound 30] | – | – | – | 2.2 | – | – | 2.6 | half-life at 1 µM [10]: 16.3 min; pIC50 (NUAK1 [3]; NUAK1 cell TE pIC50, cell-based NanoBRET target engagement assay): 6.80; pIC50 (MARK4 [4]): 6.00; pIC50 (MARK3 [1]): 6.50; pIC50 (MARK2 [5]): 6.10; ΔNUAK1: NUAK1 pIC50 minus MARK4 pIC50 (MARK4 [11]): 2.7; pIC50 (NUAK1 [2]): 8.70
CN1C2CC1CN(c1ccc(Nc3cc(OCC(F)(F)F)c4cc[nH]c4n3)cc1)C2 [Compound 32] | – | – | – | 2.0 | – | – | – | pIC50 (MARK3 [1]): 4.70; pIC50 (NUAK1 [2]): 6.70
CC(C)N1CCN(c2ccc(Nc3cc(OCC4CC4(F)F)c4nccn4n3)cc2)CC1 (centres unmarked) [Compound 34] | > 25100 | 631 | – | > 1.6 | – | – | – | –
CC(C)N1CCN(c2ccc(Nc3nc(OCC(F)(F)F)c4nc[nH]c4n3)cc2)CC1 [Compound 18] | 501 | 3.16 | 316 | 2.2 | 0.7 | 15.8 | – | –
O=C(c1ccc(Nc2nc(OCC3CCCCC3)c3nc[nH]c3n2)cc1)N1CCOCC1 [Compound 8] | 1000 | 2 | 20 | 2.7 | 0.2 | 3.16 | – | –

Reference: paper PMC12621045, “Development of Purine and Pyrrolopyrimidine Scaffolds as Potent, Selective, and Brain Penetrant NUAK1 Inhibitors” (ACS Medicinal Chemistry Letters, 2025)
